# Values quoted from earlier work in patent US6415234B1, “Designing inhibitors for glycosyltransferases” (Glyco Design Inc., priority 1998, dated 2002).
# Conditions: polarised continuum model
smiles,measurement,value
O=P(O)(O)OP(=O)(O)O [pyrophosphate dianion],solvation free energy in water,-195.8 kcal/mol
